Measured values as given in patent US11702426B2, “Macrocyclic deaza-purinones for the treatment of viral infections” (JANSSEN SCIENCES IRELAND UNLIMITED COMPANY, priority 2013, dated 2023).
Where two headings read alike, the source gives them in different places.

Key:
[1] = system: interferon production in human PBMC; assay: Interferon production in human PBMC, read out on HEK-ISRE-luc reporter cells; type: cell-based; conditions: lowest effective concentration, PBMC incubated overnight with compound, supernatant transferred to HEK-ISRE-luc cells; for minimal effective concentration: Homo sapiens, PBMC, 24 h, read-out: PBMC HEK-ISRE-luc (LEC; μM); for PBMC HEK-ISRE-luc (LEC; μM): 24 hours
Method: Activation of human TLR7 results in robust production of interferon by plasmacytoid dendritic cells present in human blood. The potential of compounds to induce interferon was evaluated by determination of interferon in the conditioned media from peripheral blood mononuclear cells (PBMC). The presence of interferon in the samples was determined, using an interferon reporter cell line stably expressing an interferon-stimulated responsive elements (ISRE)-luc reporter construct. The ISRE element with sequence TAGTTTCACTTTCCC (SEQ ID NO: 1) is highly responsive to the STAT1-STAT2-IRF9 transcription factor, which becomes activated upon binding of IFN-I to the IFN receptor. Briefly, PBMCs were prepared from buffy coats of at least two donors using a standard Ficoll centrifugation protocol. Isolated PBMCs were resuspended in RPMI medium supplemented with 10% human AB serum and 2×10^5 cells/well were dispensed into 384-well plates containing compounds (70 μL total volume). After overnight incubation of the PBMCs with the compounds, 10 μL of supernatant was transferred to 384-well plates containing 5×10^3 HEK-ISRE-luc cells/well in 30 μL (plated the day before). Following 24 hours of incubation, activation of the ISRE elements was measured by assaying luciferase activity using 40 μL/well Steady Lite Plus substrate (Perkin Elmer) and measured with ViewLux ultraHTS microplate imager (Perkin Elmer). The stimulating activity of each compound on the HEK-ISRE-luc cells was reported as LEC. The LEC in turn indicates the degree of ISRE activation on transfer of a defined amount of PBMC culture medium. Recombinant interferon alfa-2a (Roferon-A) was used as a standard control compound.

human TLR7 = molecular target: T1, human TLR7 (Homo sapiens, UniProt Q9NYK1); assay: HEK293 TLR7-NFκB-luc cellular reporter assay; type: cell-based; conditions: lowest effective concentration; HEK293 transiently transfected with TLR7 and NFκB-luc; 6 hours incubation
T1 construct: expressed in transfected cells; host or cells: HEK293
T1 sequence (Q9NYK1 27-1049): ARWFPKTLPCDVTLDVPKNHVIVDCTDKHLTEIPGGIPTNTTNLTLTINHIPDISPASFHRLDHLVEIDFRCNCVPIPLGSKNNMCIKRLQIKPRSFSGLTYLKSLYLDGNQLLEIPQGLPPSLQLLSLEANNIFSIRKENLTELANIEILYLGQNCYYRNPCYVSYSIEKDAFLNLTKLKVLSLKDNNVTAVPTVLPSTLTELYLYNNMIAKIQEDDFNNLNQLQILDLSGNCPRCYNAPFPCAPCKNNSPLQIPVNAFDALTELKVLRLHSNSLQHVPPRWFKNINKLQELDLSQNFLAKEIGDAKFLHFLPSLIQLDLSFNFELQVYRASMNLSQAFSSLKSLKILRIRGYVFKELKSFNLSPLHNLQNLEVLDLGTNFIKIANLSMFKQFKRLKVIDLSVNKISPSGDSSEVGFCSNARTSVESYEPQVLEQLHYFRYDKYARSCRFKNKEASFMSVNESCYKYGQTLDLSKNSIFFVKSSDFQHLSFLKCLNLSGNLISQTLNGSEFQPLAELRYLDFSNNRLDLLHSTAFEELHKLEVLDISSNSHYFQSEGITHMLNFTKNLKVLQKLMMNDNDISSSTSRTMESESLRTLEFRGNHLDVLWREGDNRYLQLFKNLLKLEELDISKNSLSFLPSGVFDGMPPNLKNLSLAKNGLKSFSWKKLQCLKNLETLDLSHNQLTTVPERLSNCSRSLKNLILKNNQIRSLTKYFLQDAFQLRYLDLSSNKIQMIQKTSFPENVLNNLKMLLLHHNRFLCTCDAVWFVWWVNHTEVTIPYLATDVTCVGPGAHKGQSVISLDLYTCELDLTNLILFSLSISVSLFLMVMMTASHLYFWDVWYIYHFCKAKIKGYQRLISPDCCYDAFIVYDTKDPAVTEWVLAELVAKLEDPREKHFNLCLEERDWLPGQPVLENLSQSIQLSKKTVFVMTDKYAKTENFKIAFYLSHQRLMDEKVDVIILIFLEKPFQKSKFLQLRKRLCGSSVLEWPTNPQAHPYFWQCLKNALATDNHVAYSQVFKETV
Method: The ability of compounds to activate human TLR7 and TLR8 was assessed in a cellular reporter assay using HEK293 cells transiently transfected with a TLR7 or TLR8 expression vector and NFκB-luc reporter construct. Briefly, HEK293 cells were grown in culture medium (DMEM supplemented with 10% FCS and 2 mM Glutamine). For transfection of cells in 15 cm dishes, cells were detached with Trypsin-EDTA, transfected with a mix of CMV-TLR7 or TLR8 plasmid (1,700 ng), NFκB-luc plasmid (850 ng) and a transfection reagent and incubated 48 hours at 37° C. in a humidified 5% CO2 atmosphere. Transfected cells were then washed in PBS, detached with Trypsin-EDTA, and resuspended in medium to a density of 1.25×10^5 cells/mL. Forty microliters of cells were then dispensed into each well in 384-well plates, where 200 nL of compound in 100% DMSO was already present. Following 6 hours incubation at 37° C., 5% CO2, the luciferase activity was determined by adding 15 μl of Steady Lite Plus substrate (Perkin Elmer) to each well and readout performed on a ViewLux ultraHTS microplate imager (Perkin Elmer). Dose response curves were generated from measurements performed in quadruplicates. Lowest effective concentrations (LEC) values, defined as the concentration that induces an effect which is at least two fold above the standard deviation of the assay, were determined for each compound.

[2] = rcm bond, Grubbs-Hoveyda catalyst 2nd generation (with chlorodicyclohexylborane), 1,2-dichloroethane, 120.0 °C

HEK293 TLR7-NFκB-luc (LEC; μM) (human TLR7) [µM] | SMILES | minimal effective concentration [1] [µM] | PBMC HEK-ISRE-luc (LEC; μM) [1] [µM] | ring closure, yield of all isomers ([2]; from C=CCOc1cc(N(CCc2ccc(OC)c(OCC=C)c2)C(=O)OCC)c([N+](=O)[O-])c(N)n1, 4.24 mM, 23.0 h) [%] | ring closure, yield of all isomers ([2]; from C=CCCOc1cccc(CN(C(=O)OCC)c2cc(OCC=C)nc(N)c2[N+](=O)[O-])c1, 4.18 mM, 32.0 h) [%]
2.14 | Nc1nc2cc3c1nc(O)n3Cc1ncccc1OC/C=C/CCO2 [Compound 5] | 0.082 |  |  | 
7.01 | Nc1nc2cc3c1nc(O)n3Cc1cccc(c1)OCCCCCO2 [Compound 14] | 2.4 |  |  | 
4.99 | Cl.Nc1nc2cc3c1nc(O)n3Cc1ccc(F)c(c1)OCCCCCO2 [Compound 20] |  | 1.61 |  | 
14.96 | Nc1nc2cc3c1nc(O)n3Cc1ccc(F)c(c1)OCCCCCO2 [Compound 19] | 2.22 |  |  | 
0.91 | Cl.Nc1nc2cc3c1nc(O)n3Cc1cc(F)cc(c1)OC/C=C/CCO2 [Compound 28] |  | 0.15 |  | 
1.92 | Nc1nc2cc3c1nc(O)n3Cc1cccc(c1)OCC/C=C/CO2 [Compound 25] | 0.53 |  |  | 
 | CCOC(=O)N1CCc2ccc(OC)c(c2)OCC=CCOc2cc1c([N+](=O)[O-])c(N)n2 |  |  | 25 | 
1.88 | Nc1nc2cc3c1nc(O)n3Cc1cccc(c1)NC/C=C/CCO2 [Compound 26] | 0.37 |  |  | 
16.74 | Nc1nc2cc3c1nc(O)n3Cc1cccc(c1)NCCCCO2 [Compound 23] | 8.98 |  |  | 
 | CCOC(=O)N1Cc2cccc(c2)OCCC=CCOc2cc1c([N+](=O)[O-])c(N)n2 |  |  |  | 36
17.43 | Nc1nc2cc3c1nc(O)n3CCc1cccc(c1)OC/C=C/CO2 [Compound 35] | 1.98 |  |  | 
13.75 | COc1ccc2cc1OC/C=C/COc1cc3c(nc(O)n3CC2)c(N)n1 [Compound 36] | 1.63 |  |  | 
7.1 | COc1ccc2cc1OCCCCOc1cc3c(nc(O)n3C2)c(N)n1 [Compound 8] | 0.58 |  |  | 
2.92 | Nc1nc2cc3c1nc(O)n3Cc1cc(F)cc(c1)OCCCCCO2 [Compound 32] | 0.49 |  |  | 
1.08 | COc1cc2cc(c1)OC/C=C/COc1cc3c(nc(O)n3C2)c(N)n1 [Compound 12] | 0.3 |  |  | 
1.19 | Cl.Nc1nc2cc3c1nc(O)n3Cc1cc(F)cc(c1)OC/C=C/CO2 [Compound 31] |  | 0.15 |  | 
1.83 | Cl.Nc1nc2cc3c1nc(O)n3Cc1ccc(F)c(c1)OC/C=C/CCO2 [Compound 22] |  | 0.39 |  | 
0.9 | Nc1nc2cc3c1nc(O)n3Cc1ccc(F)c(c1)OC/C=C/CCO2 [Compound 21] | 0.25 |  |  | 
1.71 | COc1cc2cc(c1)OCCCCOc1cc3c(nc(O)n3C2)c(N)n1 [Compound 13] | 0.15 |  |  | 

HEK293 TLR7-NFκB-luc (LEC; μM) (human TLR7) [µM] | SMILES | minimal effective concentration [1] [µM] | PBMC HEK-ISRE-luc (LEC; μM) [1] [µM] | ring closure, yield of all isomers ([2]; from C=CCOc1cc(N(CCc2ccc(OC)c(OCC=C)c2)C(=O)OCC)c([N+](=O)[O-])c(N)n1, 4.24 mM, 23.0 h) [%] | ring closure, yield of all isomers ([2]; from C=CCCOc1cccc(CN(C(=O)OCC)c2cc(OCC=C)nc(N)c2[N+](=O)[O-])c1, 4.18 mM, 32.0 h) [%]
1 | Nc1nc2cc3c1nc(O)n3Cc1ncccc1OCCCCCO2 [Compound 6] | 0.16 |  |  | 
2.88 | Nc1nc2cc3c1nc(O)n3Cc1cccc(c1)OC/C=C/CO2 [Compound 1] | 0.3 |  |  | 
2.02 | Nc1nc2cc3c1nc(O)n3Cc1ccc(F)c(c1)OC/C=C/CO2 [Compound 16] | 0.47 |  |  | 
1.35 | Nc1nc2cc3c1nc(O)n3Cc1cc(F)cc(c1)OC/C=C/CCO2 [Compound 27] | 0.14 |  |  | 
0.64 | Nc1nc2cc3c1nc(O)n3Cc1cc(F)cc(c1)OC/C=C/CO2 [Compound 30] | 0.15 |  |  | 
11.09 | Nc1nc2cc3c1nc(O)n3Cc1cccc(c1)CCCCCN2 [Compound 9] | 10.9 |  |  | 
1.88 | Cl.Nc1nc2cc3c1nc(O)n3Cc1ccc(F)c(c1)OC/C=C/CO2 [Compound 17] |  | 0.39 |  | 
1.14 | Nc1nc2cc3c1nc(O)n3Cc1cccc(c1)NC/C=C\CCO2 [Compound 29] | 0.48 |  |  | 
8.1 | Nc1nc2cc3c1nc(O)n3Cc1cccc(c1)NCCCCCO2 [Compound 34] | 2.11 |  |  | 
4.47 | Nc1nc2cc3c1nc(O)n3Cc1cccc(c1)OCCCCO2 [Compound 2] | 0.93 |  |  | 
1.25 | Nc1nc2cc3c1nc(O)n3Cc1cccc(c1)OC/C=C/CCCO2 [Compound 11] | 0.45 |  |  | 
3.88 | COc1ccc2cc1OC/C=C/COc1cc3c(nc(O)n3C2)c(N)n1 [Compound 7] | 0.29 |  |  | 
8.02 | Nc1nc2cc3c1nc(O)n3Cc1cccc(c1)NC/C=C/CO2 [Compound 18] | 1.11 |  |  | 
2.77 | Nc1nc2cc3c1nc(O)n3Cc1cc(F)cc(c1)OCCCCO2 [Compound 33] | 0.45 |  |  | 
0.78 | Nc1nc2cc3c1nc(O)n3Cc1cccc(c1)OC/C=C/CCO2 [Compound 10] | 0.25 |  |  | 
 | Nc1nc2cc3c1nc(O)n3Cc1ccc(F)c(c1)OCCCCO2 [Compound 24] | 2.14 |  |  | 
0.27 | Nc1nc2cc3c1nc(O)n3Cc1cccc(c1)C/C=C/CCO2 [Compound 3] | 0.033 |  |  | 
0.18 | COc1cc2cc(c1)OC/C=C/CCOc1cc3c(nc(O)n3C2)c(N)n1 [Compound 15] | 0.04 |  |  | 
